# From US20180250207A1, “LIQUID CONCENTRATE FOR PRESERVING COSMETICS” (SCHÜLKE & MAYR GMBH, priority 2015, published 2018)
# Where a name gives a salt, the structure may show the parent alone.
# System: Staphylococcus aureus, Kocuria rhizophila, Enterobacter gergoviae, Escherichia coli, Klebsiella pneumoniae, Pseudomonas aeruginosa, Pseudomonas fluorescens …
# Experiment: Koko test: preserving effect of preservatives in a cosmetic formulation (PEG-free emulsion for baby wipes), weekly re-inoculation and smears
# Assay type: cell-based, bacteria, yeast, moulds
# Conditions: use concentration of 1.0% by weight in the emulsion
# Procedure: The test described below serves to assess the preserving effect of chemical preservatives in cosmetic formulations. With the help of the described method, the aim is to test the efficacy of chemical preservatives with regard to pack preservation for cosmetic formulations. For this purpose, in different experimental batches to the nonpreserved samples, the preservatives to be investigated are added in different concentrations. A continual germ loading is achieved through periodic inoculation of the experimental batches. In parallel to the inoculation, smears of the individual batches are performed in each case directly beforehand. […] To be on the safe side, negative smears are observed for a further two days and assessed again. Assessment of the preserving effect of the individual product concentrations is performed in a semi-quantitative method via the growth of the individual smears. −=growth-free ++=moderate growth +=weak growth +++=strong growth The growth is differentiated according to bacteria, yeasts and moulds (“B”=bacteria, “Y”=yeasts, “M”=moulds, “Sp”=spore-forming bacteria, “/”=the test was terminated). […] The sample is well preserved if, under the aforementioned laboratory conditions, it withstands a period of six weeks without microbial attack of the sample batches, i.e. microbial growth cannot be detected even after the sixth inoculation. […]
smiles,measurement,value
CCCCCCCCN=c1ccn(CCCCCCCCCCn2ccc(=NCCCCCCCC)cc2)cc1 [Octenidine dihydrochloride],"Preserving effect, overall assessment in words",does not have an antimicrobial effect on its own
